Values joined by “and” are separate entries in the source; they are usually repeats but may differ in a detail not shown here. Equal values may be shown once.
Legend:
293T cells [1] = test: Cell transfection test of LNP formulation of eGFP-mRNA (optimization of preparation conditions); type: cell-based
Description: The cationic lipid compound YK-407 synthesized in Example 1 was dissolved in ethanol with DSPC (AVT (Shanghai) Pharmaceutical Technology Co., Ltd.), cholesterol (AVT (Shanghai) Pharmaceutical Technology Co., Ltd.) and DMG-PEG2000 according to a molar ratio of 49:10:39.5:1.5, respectively, to prepare an ethanol lipid solution. The ethanol lipid solution was quickly added to citrate buffer (pH=4-5) by ethanol injection method, and vortexed for 30s for later use. eGFP-mRNA was diluted in citrate buffer (pH=4-5) to give an aqueous mRNA solution. A certain volume of liposome solution and mRNA aqueous solution were used to prepare liposomes at weight ratios of total lipids to mRNA of 5:1, 10:1, 15:1, 20:1, 30:1 and 35:1, respectively. The mixtures were sonicated at 25° C. for 15 min (with an ultrasonic frequency of 40 kHz and an ultrasonic power of 800 W). The resulted liposomes were diluted to 10 times volume with PBS, and then ultrafiltered with a 300KDa ultrafiltration tube to remove ethanol. Then the volume was fixed to a certain volume with PBS to give an LNP formulation encapsulating eGFP-mRNA using cationic lipid YK-407/DSPC/cholesterol/DMG-PEG2000 (49:10:39.5:1.5 in molar percentage).
The LNP formulation encapsulating eGFP-mRNA was prepared according to the method in 1, wherein the molar ratios of cationic lipid YK-407 to neutral lipid DSPC were 1:1, 3:1, 3.5:1, 4:1, 4.5:1, 4.9:1, 10:1, 15:1 and 20:1.
The LNP formulation encapsulating eGFP-mRNA was prepared according to the method in 1, wherein the cationic lipid in the carrier was YK-407, and the molar ratios of the polymer-conjugated lipid DMG-PEG2000 to the carrier were 0.5%, 1.5%, 3.5%, 5%, 10% and 15%, respectively.
The LNP formulation encapsulating eGFP-mRNA was prepared according to the method in 1, wherein the molar ratios of cationic lipid YK-407, neutral lipid DSPC, structured lipid cholesterol and polymer-conjugated lipid DMG-PEG2000 were 75:5:15:5, 49:10:39.5:1.5, 45:10:43.5:1.5, 45:25:20:10, 40:10:48.5:1.5, 35:10:53.5:1.5 and 25:5:65:5, respectively.
Cell recovery and passage: 293T cells were recovered, cultured in a culture dish, and passaged to the required number of cells.
Seeding plate: The cells in the culture dish were digested and counted. Cells were spread in a 96-well plate at 10,000 cells per well and in a 12-well plate at 150,000 cells per well. Cells were cultured overnight until the cells adhered to the wall.
Cell transfection test: The LNP formulation containing 1.5 μg of eGFP-mRNA prepared in Example 2 (the cationic lipid in the carrier was YK-407) and the Lipofectamin 3000 formulation of eGFP-mRNA were added respectively to the cell culture medium of the 12-well plate, and further incubated for 24 hours. The transfection efficiency of different samples was then investigated according to the fluorescence intensity by observing with a fluorescence microscope.

female BALB/C mice = test: In vivo imaging in mice of Fluc-mRNA LNP formulations (mRNA expression and duration)
Outline: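 Female BALB/C mice (4-6 weeks, 17-19 g) received LNP carrying […] Fluc-mRNA intramuscularly. At 6h, 24 h, 48h and 7d, fluorescent imaging substrate was given intraperitoneally and after 5 minutes average radiance, as a measure of expressed protein, was imaged on an IVIS Spectrum system.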

293T cells [2] = test: Fluorescent detection of Fluc-mRNA (cell transfection efficiency of LNP formulations); type: cell-based
293T cells [3] = test: as above; type: cell-based; remark: listed apart in the source

For `CCCCCCCCCCCOC(=O)CCCN(CCO)CCN(CCO)CCCCCC(=O)OC(CCCCCCCC)CCCCCCCC` [YK-407], the “transfection efficiency at different molar ratios of polymer-conjugated lipid DMG-PEG2000 to carrier” value (293T cells [1]; 0.5% to 15%) was “the transfection efficiency was the highest when the molar ratio was 1.5%”, the “transfection effect at different molar ratios of cationic lipid, neutral lipid, structured lipid and polymer-conjugated lipid” value (293T cells [1]; 75:5:15:5 to 25:5:65:5) was “the transfection effect was the best when the ratio was 40:10:48.5:1.5” and the “transfection efficiency at different molar ratios of cationic lipid to neutral lipid DSPC” value (293T cells [1]; ratios 1:1 to 20:1) was “the transfection efficiency was the highest at the molar ratio of cationic lipid to neutral lipid of 4:1”. For the same compound, the “transfection effect at different weight ratios of carrier to mRNA” value (293T cells [1]; ratios 5:1, 10:1, 15:1, 20:1, 30:1 and 35:1) was “the ratio of 15:1 had the best transfection effect”, the “average radiation intensity, times that of ALC-0315” value (female BALB/C mice; 6 h) was 4.76 and the “average radiation intensity, times that of HHMA” value (female BALB/C mice; 6 h) was 6.05. For the same compound, the “average radiation intensity, times that of SM-102” value (female BALB/C mice; 6 h) was 5.79, the “average radiation intensity, times that of compound 21” value (female BALB/C mice; 6 h) was 6.66 and the “average radiation intensity, times that of compound 23” value (female BALB/C mice; 6 h) was 6.88. The “expression amount in mice, times that of YK-415” value (shortened to “expression amount … of YK-415”) (female BALB/C mice; 6 h) was 33.96, the “expression amount in mice, times that of YK-417” value (“expression amount … of YK-417” below) (female BALB/C mice; 6 h) was 66.16 and the “average radiation intensity, times that of ALC-0315” value (female BALB/C mice; 24 h) was 10.62. For the same compound, the “average radiation intensity, times that of HHMA” value (female BALB/C mice; 24 h) was 16.80, the “average radiation intensity, times that of SM-102” value (female BALB/C mice; 24 h) was 16.34 and the “average radiation intensity, times that of compound 21” value (female BALB/C mice; 24 h) was 18.15. The “average radiation intensity, times that of compound 23” value (female BALB/C mice; 24 h) was 19.97, the “expression amount … of YK-415” value (female BALB/C mice; 24 h) was 31.25 and the “expression amount … of YK-417” value (female BALB/C mice; 24 h) was 100.86. The “mRNA expression in mice, times that of YK-411” value (from here on “mRNA expression in mice”) (female BALB/C mice; 24 h) was 996.97 and 1000, the “average radiation intensity, times that of ALC-0315” value (female BALB/C mice; 48 h) was 22 and 22.06 and the “average radiation intensity, times that of HHMA” value (female BALB/C mice; 48 h) was 27 and 26.55. For the same compound, the “average radiation intensity, times that of SM-102” value (female BALB/C mice; 48 h) was 27 and 26.93, the “average radiation intensity, times that of compound 21” value (female BALB/C mice; 48 h) was 28 and 28.07 and the “average radiation intensity, times that of compound 23” value (female BALB/C mice; 48 h) was 27 and 26.89. The “expression amount … of YK-415” value (female BALB/C mice; 48 h) was 56.07, the “expression amount … of YK-417” value (female BALB/C mice; 48 h) was 125.66 and 120 and the “mRNA expression in mice” value (female BALB/C mice; 48 h) was 907.99. For the same compound, the “average radiation intensity, times that of ALC-0315” value (female BALB/C mice; 7 d) was 6.90, the “average radiation intensity, times that of HHMA” value (female BALB/C mice; 7 d) was 8.13 and the “average radiation intensity, times that of SM-102” value (female BALB/C mice; 7 d) was 7.20. The “average radiation intensity, times that of compound 21” value (female BALB/C mice; 7 d) was 7.59, the “average radiation intensity, times that of compound 23” value (female BALB/C mice; 7 d) was 7.93 and the “expression amount … of YK-415” value (female BALB/C mice; 7 d) was 11.98. For the same compound, the “expression amount … of YK-417” value (female BALB/C mice; 7 d) was 21.20 and 20, the “mRNA expression in mice” value (female BALB/C mice; 7 d) was 100.85 and 100 and the “average radiation intensity, 6 h” value (female BALB/C mice; Fluc-mRNA LNP intramuscular, 6 h after administration) was 4001500. For the same compound, the “average radiation intensity, 24 h” value (female BALB/C mice; Fluc-mRNA LNP intramuscular, 24 h after administration) was 2015870, the “average radiation intensity, 48 h” value (female BALB/C mice; Fluc-mRNA LNP intramuscular, 48 h after administration) was 885288 and the “average radiation intensity, 7 d” value (female BALB/C mice; Fluc-mRNA LNP intramuscular, 7 d after administration) was 48410. For the same compound, the “Relative light unit (RLU)” value (293T cells [2]; LNP with 0.3 μg Fluc-mRNA, 96-well plate, 24 hours) was 20385506 RLU, the “cell transfection efficiency, times that of YK-415” value (293T cells [2]; ratio vs YK-415) was 68.40 and the “cell transfection efficiency, times that of YK-417” value (293T cells [2]; ratio vs YK-417) was 173.81 and 170. The “cell transfection efficiency, times that of YK-418” value (293T cells [2]; ratio vs YK-418) was 183.24 and 180, the “cell transfection efficiency, times that of YK-424” value (293T cells [2]; ratio vs YK-424) was 7.07 and the “RLU value, times that of compound 21” value (293T cells [2]; ratio vs compound 21) was 13.49 and 13. For the same compound, the “RLU value, times that of compound 23” value (293T cells [2]; ratio vs compound 23) was 14.53 and 15, the “RLU value, times that of ALC-0315” value (293T cells [3]; ratio vs ALC-0315) was 9.31 and the “RLU value, times that of HHMA” value (293T cells [3]; ratio vs HHMA) was 9.81. For the same compound, the “RLU value, times that of Lipofectamine 3000” value (293T cells [3]; ratio vs Lipofectamine 3000) was 16.98, the “RLU value, times that of YK-009” value (293T cells [3]; ratio vs YK-009) was 3.96 and the “RLU value, times that of YK-405” value (293T cells [3]; ratio vs YK-405) was 6.37. For the same compound, the “RLU value, times that of YK-406” value (293T cells [3]; ratio vs YK-406) was 260.51, the “RLU value, times that of YK-408” value (293T cells [3]; ratio vs YK-408) was 13.83 and the “RLU value, times that of YK-409” value (293T cells [3]; ratio vs YK-409) was 30.43. For the same compound, the “RLU value, times that of YK-410” value (293T cells [3]; ratio vs YK-410) was 49.98, the “cell transfection efficiency, times that of YK-412” value (293T cells [3]; ratio vs YK-412) was 6.05 and the “cell transfection efficiency, times that of YK-413” value (293T cells [3]; ratio vs YK-413) was 14.80. For the same compound, the “cell transfection efficiency, times that of YK-414” value (293T cells [3]; ratio vs YK-414) was 45.90, the “cell transfection efficiency, times that of YK-416” value (293T cells [3]; ratio vs YK-416) was 5.13 and the “cell transfection efficiency, times that of YK-419” value (293T cells [3]; ratio vs YK-419) was 6.44. The “cell transfection efficiency, times that of YK-420” value (293T cells [3]; ratio vs YK-420) was 5.07 and the “cell transfection efficiency, times that of YK-421” value (293T cells [3]; ratio vs YK-421) was 43.69.
